According to US8198432B2, “Porphyrin-based compounds for tumor imaging and photodynamic therapy” (Health Research, Inc., priority 2005, dated 2012):
Values joined by “and” are separate entries in the source; they are usually repeats but may differ in a detail not shown here. Equal values may be shown once. Each block holds one compound with its values, some of them ahead of it.

Assays:
[1] = system: RIF tumor cells; assay: in vitro photosensitizing efficacy (PDT, MTT assay) in RIF tumor cells; assay type: cell-based; design: in vitro photosensitizing efficacy compared with HPPH: dose or concentration left out as unconfirmed
Procedure: For evaluating in vitro photosensitizing efficacy of 3-iodobenxyloxyethyl-pyropheophorbide-a 2, RIF tumor cells were grown in alpha-DMEM with 10% fetal calf serum, penicillin and streptomycin. Cells were maintained in 5% CO2, 95% air and 100% humidity. For determining the PDT efficacy, these cells were plated in 96-well plates and a density of 1×10^4 cells well in complete media. After overnight incubation to allow the cells to attach, the HPPH and the related cold-iodo derivative 2 were individually added at variable concentrations. After 3 hr incubation in the dark at 37° C., the cells were washed once with PBS, and irradiated with light. After light treatment, the cells were washed once and placed in complete media and incubated for 48 hrs. Then 10 μl of a 4-mg/ml solution of MTT was added to each well. After incubating for 4 hr at 37° C. the MTT+ media were removed and 100 μl DMSO was added to solubilize the formazin crystals. The 96-well plate was read on a microtiter plate reader at an absorbance of 560 nm. The optimal cell kill was obtained at a concentration of 1.00 µM. The results were plotted as percent survival of the corresponding dark (drug no light) control for each compound tested. (FIG. 4) Each data point represents the mean from 3 separate experiments, and the error bars are the standard deviation. Each experiment used 5 replicate wells.

[2] = system: RIF tumors; assay: in vivo photosensitizing efficacy, tumor re-growth after laser light; settings: C3H mice bearing RIF tumors, light at 665 nm for 30 minutes
Procedure: The in vivo efficacy was determined in C3H mice bearing RIF tumors (5 mice/group). The tumors were exposed to light at 665 nm (in vivo absorption) with a laser light ([…]) for 30 minutes. The tumor-regrowth was measured everyday (for details see ‘Methods’ part of the project). […] Further studies to optimize the treatment conditions at variable fluence and fluence-rates and time intervals are currently in progress.

[3] = system: RIF cells; assay: preliminary screening of aromatic alkyl ethers for in vitro and in vivo efficacy (RIF cells); assay type: cell-based
Description: There are several methods for labeling the compounds with iodine isotopes. Conversion of the cold iodo- to radioactive iodo- is possible, but the specific activity of the resulting product is low. […] Therefore, we prepared a series of aromatic alkyl ethers and evaluated them for in vitro (RIF cells) and in vivo efficacy (RIF cells).

[4] = system: RIF tumors; assay: in vivo tumor imaging with small animal PET scanner; settings: C3H mice bearing RIF tumors
Procedure: In initial experiments, the 1-124 labeled photosensitizer 2 at variable radioactive doses (35, 50 and 100 µCi) was injected in three sets of C3H mice (3 mice/group, bearing RIF tumors at the shoulder) respectively and the images were taken with a small animal PET scanner at 24, 48 and 72 h time intervals (FIG. 6 images A, B, and C). In all radioactive doses, the best images were obtained at 48 h post injection of the drug.

[5] = biodistribution of the I-124 PET agent in selected organs; assay type: in vivo, mice; design: unit not given here; settings: 48 h post injection, per gram of organ
Procedure: After PET imaging at 48 h post-injection, a group of mice (3 mice/group) were sacrificed and the biodistribution of the I-124 PET agent in selected organs/gram were determined.

SMILES: CCC1=C(C)c2cc3[nH]c(cc4nc(c5c6[nH]c(cc1n2)c(C)c6C(=O)C5)[C@@H](CCC(=O)OC)[C@@H]4C)c(C)c3C(C)OCc1cccc(I)c1 (stereo partly drawn) [Compound 2]
concentration at which the optimal cell kill was obtained ([1]; 3 hr incubation in the dark, light, MTT after 48 hrs): 1.00 µM | in vitro photosensitizing efficacy compared with HPPH ([1]; FIG. 4): slightly more effective | time at which tumor re-growth was observed ([2]; dose 0.25 […]mole/kg): 10 days post-injection | time at which tumor re-growth was observed ([2]; dose 0.50 […]mole/kg): 15 days post-injection | in vivo efficacy (PDT) ([2]; dose of 1.0 and 1.5 µmol/kg, 24 hours post injection): quite effective | efficacy in preliminary screening compared with HPPH [3]: as effective as HPPH

presence of the compound in organs other than tumor on PET images [4]: especially in liver was evident | biodistribution, Blood ([5]; AVG of 3 mice): 1.12 | biodistribution, Gut ([5]; AVG of 3 mice): 2.47 | biodistribution, Heart ([5]; AVG of 3 mice): 0.99 | biodistribution, Kidney ([5]; AVG of 3 mice): 1.10 | biodistribution, Liver ([5]; AVG of 3 mice): 3.31 | biodistribution, Lungs ([5]; AVG of 3 mice): 1.09 | biodistribution, Muscle ([5]; AVG of 3 mice): 0.35 | biodistribution, Spleen ([5]; AVG of 3 mice): 2.11 | biodistribution, Stomach ([5]; AVG of 3 mice): 1.02 | biodistribution, Tumor ([5]; AVG of 3 mice): 2.22 | biodistribution, Blood ([5]; individual mouse (Mouse 1-3)): 1.47 and 1.33 and 0.57 | biodistribution, Gut ([5]; individual mouse (Mouse 1-3)): 3.6 and 2.22 and 1.69 | biodistribution, Heart ([5]; individual mouse (Mouse 1-3)): 0.79 and 1.21 and 0.98 | biodistribution, Kidney ([5]; individual mouse (Mouse 1-3)): 1.09 and 1.21 and 0.99 | biodistribution, Liver ([5]; individual mouse (Mouse 1-3)): 3.46 and 3.22 and 3.26 | biodistribution, Lungs ([5]; individual mouse (Mouse 1-3)): 0.99 and 1.29 and 1.00 | biodistribution, Muscle ([5]; individual mouse (Mouse 1-3)): 0.18 and 0.49 and 0.37 | biodistribution, Spleen ([5]; individual mouse (Mouse 1-3)): 2.04 and 2.23 and 2.05 | biodistribution, Stomach ([5]; individual mouse (Mouse 1-3)): 1.3 and 0.66 and 1.10 | biodistribution, Tumor ([5]; individual mouse (Mouse 1-3)): 2.4 and 2.15 and 2.10
SMILES: CCC1=C(C)c2cc3[nH]c(cc4nc(c5c6[nH]c(cc1n2)c(C)c6C(=O)C5)[C@@H](CCC(=O)OC)[C@@H]4C)c(C)c3C(C)OCc1cccc([124I])c1 (stereo partly drawn) [I-124 labeled photosensitizer 4]
